# Reference: patent US20260193271A1, “PAN-KRAS INHIBITOR COMPOUND” (ADLAI NORTYE BIOPHARMA CO., LTD., priority 2022, published 2026)
# What was measured:
# [1] = system: SW480 (G12V); assay: In vitro cell proliferation inhibition test (CellTiter-Glo), SW480; format: cell-based; settings: SW480 colon cell line, KRAS (p.G12V), 72 h co-incubation
# Procedure, shortened: (§1)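 Cells were seeded at 1000-5000/well by doubling time and cultured overnight at 37 °C, 5% CO2. They were then exposed for 72 h to 10-point, 3-fold compound dilutions (final top 10 μM), and viability was read by CellTiter-Glo luminescence. IC50 came from normalized signals fitted by four-parameter regression.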
# [2] = system: AsPC-1 (G12D); assay: In vitro cell proliferation inhibition test (CellTiter-Glo), AsPC-1; format: cell-based; settings: KRAS (p.G12D), 72 h co-incubation
# Procedure, shortened: as §1
Compound,IC50 [1],IC50 ([2]; AsPC-1 pancreas cell line),IC50 ([1]; Homo sapiens),"IC50 ([2]; Homo sapiens, ASPC1, AsPC-1 pancreas cell line)"
"CCn1c(-c2cc(-c3cc(C4CCN(C)C4)on3)cnc2C(C)OC)c2c3cc(ccc31)-c1csc(n1)CC(NC(=O)C1C(C)C1C)C(=O)N1CCCC(N1)C(=O)OCC(C)(C)C2 [Compound 29′, (1r,2R,3S)-N-((6^3S,4S,Z)-1^1-ethyl-1^2-(2-((S)-1-methoxyethyl)-5-(5-((R)-1-methylpyrrolidin-3-yl)isoxazol-3-yl)pyridin-3-yl)-10,10-dimethyl-5,7-dioxo-6^1,6^2,6^3,6^4,6^5,6^6-hexahydro-1^1H-8-oxa-2(4,2)-thiazola-1(5,3)-indola-6(1,3)-pyridazinacycloundecaphane-4-yl)-2,3-dimethylcyclopropane-1-carboxamide]",11.4 nM,5.3 nM,,
"CCn1c(-c2cc(-c3cnn(CC4CCCN4C)c3)cnc2C(C)OC)c2c3cc(ccc31)-c1csc(n1)CC(NC(=O)C1C(C)C1C)C(=O)N1CCCC(N1)C(=O)OCC(C)(C)C2 [Compound 62, (1r,2R,3S)-N-((6^3S,4S,Z)-1^1-ethyl-1^2-(2-((S)-1-methoxyethyl)-5-(1-(((R)-1-methylpyrrolidin-2-yl)methyl)-1H-pyrazol-4-yl)pyridin-3-yl)-10,10-dimethyl-5,7-dioxo-6^1,6^2,6^3,6^4,6^5,6^6-hexahydro-1^1H-8-oxa-2(4,2)-thiazola-1(5,3)-indola-6(1,3)-pyridazinacycloundecaphane-4-yl)-2,3-dimethylcyclopropane-1-carboxamide]",3.9 nM,0.54 nM,,
"CCn1c(-c2cc(-c3cn(CC4CCN(C)CC4)nn3)cnc2C(C)OC)c2c3cc(ccc31)-c1csc(n1)C[C@H](NC(=O)[C@H]1C[C@@H]1C)C(=O)N1CCC[C@H](N1)C(=O)OCC(C)(C)C2 (stereo partly drawn) [Compound 65, (1S,2S)-N-((6^3S,4S,Z)-1^1-ethyl-1^2-(2-((S)-1-methoxyethyl)-5-(1-((1-methylpiperidin-4-yl)methyl)-1H-1,2,3-triazol-4-yl)pyridin-3-yl)-10,10-dimethyl-5,7-dioxo-6^1,6^2,6^3,6^4,6^5,6^6-hexahydro-1^1H-8-oxa-2(4,2)-thiazola-1(5,3)-indola-6(1,3)-pyridazinacycloundecaphane-4-yl)-2-methylcyclopropane-1-carboxamide]",,,150 nM,12 nM
"(1S,2S)-N-((6^3S,4S,Z)-1^1-ethyl-1^2-(2-((S)-1-methoxyethyl)-5-(1-((R)-1-methylpyrrolidin-3-yl)-1H-pyrazol-4-yl)pyridin-3-yl)-10,10-dimethyl-5,7-dioxo-6^1,6^2,6^3,6^4,6^5,6^6-hexahydro-1^1H-8-oxa-2(4,2)-thiazola-1(5,3)-indola-6(1,3)-pyridazinacycloundecaphane-4-yl)-2-methylcyclopropane-1-carboxamide [Compound 16′]",265 nM,2280 nM,,
"(1S,2S)-N-((6^3S,4S,Z)-1^1-ethyl-1^2-(2-((S)-1-methoxyethyl)-5-(5-(morpholinomethyl)pyrimidin-2-yl)pyridin-3-yl)-10,10-dimethyl-5,7-dioxo-6^1,6^2,6^3,6^4,6^5,6^6-hexahydro-1^1H-8-oxa-2(4,2)-thiazola-1(5,3)-indola-6(1,3)-pyridazinacycloundecaphane-4-yl)-2-methylcyclopropane-1-carboxamide [Compound 14′]",633 nM,1180 nM,,
"(1S,2S)-N-((6^3S,4S,Z)-1^1-ethyl-1^2-(6′-((S)-1-methoxyethyl)-4-(morpholinomethyl)-[2,3′-bipyridin]-5′-yl)-10,10-dimethyl-5,7-dioxo-6^1,6^2,6^3,6^4,6^5,6^6-hexahydro-1^1H-8-oxa-2(4,2)-thiazola-1(5,3)-indola-6(1,3)-pyridazinacycloundecaphane-4-yl)-2-methylcyclopropane-1-carboxamide [Compound 11′]",346 nM,242 nM,,
"(1S,2S)-N-((6^3S,4S,Z)-1^1-ethyl-1^2-(6′-((S)-1-methoxyethyl)-5-(morpholinomethyl)-[2,3′-bipyridin]-5′-yl)-10,10-dimethyl-5,7-dioxo-6^1,6^2,6^3,6^4,6^5,6^6-hexahydro-1^1H-8-oxa-2(4,2)-thiazola-1(5,3)-indola-6(1,3)-pyridazinacycloundecaphane-4-yl)-2-methylcyclopropane-1-carboxamide [Compound 12′]",319 nM,814 nM,,
"(1S,2S)-N-((6^3S,4S,Z)-1^1-ethyl-1^2-(6′-((S)-1-methoxyethyl)-6-(morpholinomethyl)-[2,3′-bipyridin]-5′-yl)-10,10-dimethyl-5,7-dioxo-6^1,6^2,6^3,6^4,6^5,6^6-hexahydro-1^1H-8-oxa-2(4,2)-thiazola-1(5,3)-indola-6(1,3)-pyridazinacycloundecaphane-4-yl)-2-methylcyclopropane-1-carboxamide [Compound 13′]",236 nM,302 nM,,
"(1r,2R,3S)-N-((6^3S,4S,Z)-1^1-ethyl-1^2-(2-((S)-1-methoxyethyl)-5-(1-(1-methylazetidin-3-yl)-1H-pyrazol-4-yl)pyridin-3-yl)-10,10-dimethyl-5,7-dioxo-6^1,6^2,6^3,6^4,6^5,6^6-hexahydro-1^1H-8-oxa-2(4,2)-thiazola-1(5,3)-indola-6(1,3)-pyridazinacycloundecaphane-4-yl)-2,3-dimethylcyclopropane-1-carboxamide [Compound 17′]",85 nM,697 nM,,
"(1r,2R,3S)-N-((6^3S,4S,Z)-1^1-ethyl-1^2-(2-((S)-1-methoxyethyl)-5-(1-(2-(4-methylpiperazin-1-yl)ethyl)-1H-pyrazol-4-yl)pyridin-3-yl)-10,10-dimethyl-5,7-dioxo-6^1,6^2,6^3,6^4,6^5,6^6-hexahydro-1^1H-8-oxa-2(4,2)-thiazola-1(5,3)-indola-6(1,3)-pyridazinacycloundecaphane-4-yl)-2,3-dimethylcyclopropane-1-carboxamide [Compound 19′]",16 nM,33 nM,,
"(1r,2R,3S)-N-((63S,4S,Z)-1^1-(2,2-difluoroethyl)-1^2-(2-((S)-1-methoxyethyl)-5-(2-(morpholinomethyl)pyrimidin-5-yl)pyridin-3-yl)-10,10-dimethyl-5,7-dioxo-6^1,6^2,6^3,6^4,6^5,6^6-hexahydro-1^1H-8-oxa-2(4,2)-thiazola-1(5,3)-indola-6(1,3)-pyridazinacycloundecaphane-4-yl)-2,3-dimethylcyclopropane-1-carboxamide [Compound 48]",0.51 nM,0.54 nM,,
